Laboratory results as given in patent US9492447B2, “Cannabinoid receptor modulators” (Arena Pharmaceuticals, Inc., priority 2011, dated 2016).
pEC50: −log10 of the molar value. Values joined by “and” are separate entries in the source; they are usually repeats but may differ in a detail not shown here. Identical values can stand only once.

Tests used:
human CB2 receptor = biological target: T1, human CB2 receptor (Homo sapiens, UniProt P34972); assay: PathHunter β-arrestin assay, CB2 assay; assay type: cell-based
T1 construct: CB2 was cloned into the pCMV-PK vector; 93-0164 (CHO-K1 EA-Arrestin parental cell line)
T1 sequence (P34972 whole entry): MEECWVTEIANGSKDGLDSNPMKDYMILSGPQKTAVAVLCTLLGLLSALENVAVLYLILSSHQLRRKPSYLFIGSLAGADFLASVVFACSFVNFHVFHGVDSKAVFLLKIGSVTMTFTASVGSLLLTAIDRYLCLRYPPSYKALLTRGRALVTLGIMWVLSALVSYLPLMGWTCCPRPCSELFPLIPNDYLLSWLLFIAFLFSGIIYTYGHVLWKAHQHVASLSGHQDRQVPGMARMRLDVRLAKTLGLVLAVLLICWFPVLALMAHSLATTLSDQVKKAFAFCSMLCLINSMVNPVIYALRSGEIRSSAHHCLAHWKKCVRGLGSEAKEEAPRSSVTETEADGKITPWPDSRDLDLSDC

[1] = system: STZ-induced PDPN model, diabetic and allodynic rats; assay: Streptozotocin-induced painful diabetic peripheral neuropathy (PDPN) model; assay type: in vivo, rat; details: 10 mg/kg orally in 0.5% methylcellulose; 1, 4 and 6 hours post-dosing; FIG. 13, 14
Experimental: Male Sprague-Dawley rats were injected intraperitoneally with 50 mg/kg of streptozotocin (STZ) in sodium citrate buffer. 10% sucrose water was provided ad libitum for the first 48 hours post-STZ followed by regular drinking water. Rats were monitored once weekly for blood glucose levels and body weights. Development of tactile allodynia over time was analyzed using Von Frey filaments and a 50% withdrawal threshold was determined using Dixon's up-down procedure. […] Tactile allodynia was evaluated at 1, 4 and 6 hours post-dosing.

[2] = system: Monosodium iodoacetate-induced osteoarthritis rats; assay: Combination of Compound 699 and morphine in MIA-induced osteoarthritis pain, Von Frey test; assay type: in vivo, rat; details: Von Frey one hour post-dosing
[3] = system: acute and chronic pain from chemical, mechanical, and thermal pain stimuli; details: animal studies; cited from earlier work
[4] = system: capsaicin-induced hyperalgesia and allodynia; details: topical administration, humans; cited from earlier work
[5] = Dynamic moisture-sorption (DMS) analysis; assay type: physicochemical
Experimental: A dynamic moisture-sorption (DMS) study was conducted using a dynamic moisture-sorption analyzer, VTI Corporation, SGA-100. The instrument was calibrated using polyvinyl pyrrolidone (PVP) and NaCl. Samples were prepared for DMS analysis by placing 5 mg to 20 mg of a sample in a tared sample holder. The sample was placed on the hang-down wire of the VTI balance. A drying step was run, typically at 40° C. and 0.5-1% RH for 1 h. The isotherm temperature is 25° C. Defined % RH holds typically ranged from 10% RH to 90% RH, with intervals of 10 to 20% RH. A % weight change smaller than 0.010% over 10 min, or up to 2 h, whichever occurred first, was required before continuing to the next % RH hold. The water content of the sample equilibrated as described above was determined at each % RH hold.

CB1 = details: exogenous administration of a CB1 agonist; cited from earlier work
Sequence of CB1 (P47746 whole entry): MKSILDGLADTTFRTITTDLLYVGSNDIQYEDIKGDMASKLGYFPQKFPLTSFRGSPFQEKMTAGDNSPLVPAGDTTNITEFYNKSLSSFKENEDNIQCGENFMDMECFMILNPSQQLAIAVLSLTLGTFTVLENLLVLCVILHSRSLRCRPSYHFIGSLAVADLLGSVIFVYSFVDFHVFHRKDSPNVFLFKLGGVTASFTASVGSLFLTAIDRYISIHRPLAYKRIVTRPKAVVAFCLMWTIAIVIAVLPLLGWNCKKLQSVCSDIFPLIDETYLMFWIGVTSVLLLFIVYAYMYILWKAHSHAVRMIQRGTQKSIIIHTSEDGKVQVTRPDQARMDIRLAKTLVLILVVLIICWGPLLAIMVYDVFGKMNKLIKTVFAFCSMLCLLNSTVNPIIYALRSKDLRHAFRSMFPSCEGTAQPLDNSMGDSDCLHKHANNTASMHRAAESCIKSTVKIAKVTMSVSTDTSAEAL

[6] = system: rats following ligation of spinal nerves; details: cited from earlier work
[7] = system: carrageenan, capsaicin, and formalin models of inflammatory pain in rodents; details: systemic delivery; cited from earlier work

With CC(C)(NC(=O)c1nn(-c2c[n+]([O-])ccn2)c2c1C[C@@H]1C[C@H]21)C(F)(F)F [Compound 919, (1aS,5aS)-2-(4-Oxy-pyrazin-2-yl)-1a,2,5,5a-tetrahydro-1H-2,3-diaza-cyclopropa[a]pentalene-4-carboxylic Acid (2,2,2-Trifluoro-1,1-dimethyl-ethyl)-amide] as the compound, how does the pEC50 (human CB2 receptor) read?
The pEC50 was 8.55.

What about the “analgesic efficacy, tactile allodynia (50% withdrawal threshold)” value [1] of the same compound?
The value was “robust and sustained analgesic efficacy over 6 hours”.

With CN1CC[C@]23c4c5ccc(O)c4O[C@H]2[C@@H](O)C=C[C@H]3[C@H]1C5 [morphine, reference compound] as the compound, how does the “paw withdrawal threshold (PWT), individual values” (from here on “paw withdrawal threshold (PWT)”) ([2]; 1 mpk morphine intraperitoneally) read?
Its value is 4.25 and 8.44 and 5.57 and 5.44 and 4.72 and 2.02.

With CCCCCCC(C)(C)c1ccc([C@@H]2C[C@H](O)CC[C@H]2CCCO)c(O)c1 [CP55,940] as the compound, how does the “effect against acute and chronic pain” value [3] read?
Its value is “effective against acute and chronic pain”.

For Cc1c(C(=O)c2cccc3ccccc23)c2cccc3c2n1[C@H](CN1CCOCC1)CO3 [WIN 55212-2], which “effect against acute and chronic pain” value [3] is on record?
The value was “effective against acute and chronic pain”.

With CCCCCCC(C)(C)c1cc(O)c2c(c1)OC(C)(C)[C@@H]1CC=C(CO)C[C@@H]21 [HU-210] as the compound, how does the “effect on capsaicin-induced hyperalgesia and allodynia” value [4] read?
Its value is “attenuates capsaicin-induced hyperalgesia and allodynia”.

With O=C(N[C@H]1c2ccccc2C[C@H]1O)c1nn(-c2c[n+]([O-])ccn2)c2c1C[C@@H]1C[C@H]21 [Compound 921, (1aS,5aS)-2-(4-Oxy-pyrazin-2-yl)-1a,2,5,5a-tetrahydro-1H-2,3-diaza-cyclopropa[a]pentalene-4-carboxylic Acid ((1S,2R)-2-Hydroxy-indan-1-yl)-amide] as the compound, how does the pEC50 (human CB2 receptor) read?
The pEC50 was 8.66.

With O=C(NC1(C(F)(F)F)CCC1)c1nn(-c2c[n+]([O-])ccn2)c2c1C[C@@H]1C[C@H]21 [Compound 765, (1aS,5aS)-2-(4-Oxy-pyrazin-2-yl)-1a,2,5,5a-tetrahydro-1H-2,3-diaza-cyclopropa[a]pentalene-4-carboxylic Acid (1-Trifluoromethyl-cyclobutyl)-amide] as the compound, how does the pEC50 (human CB2 receptor) read?
Its pEC50 is 8.96.

With CC(C)(C)[C@@H](CO)NC(=O)c1nn(-c2c[n+]([O-])ccn2)c2c1C[C@@H]1C[C@H]21 [Compound 699 (Anhydrous Form), (1aS,5aS)-2-(4-Oxy-pyrazin-2-yl)-1a,2,5,5a-tetrahydro-1H-2,3-diaza-cyclopropa[a]pentalene-4-carboxylic Acid ((S)-1-Hydroxymethyl-2,2-dimethyl-propyl)-amide] as the compound, how does the “Weight (% Change)” value ([5]; adsorption, sample RH 29.94 %, 25.32) read?
The value was 0.151%.

And the “Weight (% Change)” value ([5]; adsorption, sample RH 49.86 %, 25.31)?
Its value is 0.282%.

And the “Weight (% Change)” value ([5]; adsorption, sample RH 69.77 %, 25.3)?
Its value is 0.482%.

And the “Weight (% Change)” value ([5]; adsorption, sample RH 79.70 %, 25.29)?
The value was 0.581%.

And the “Weight (% Change)” value ([5]; adsorption, sample RH 89.72 %, 25.3)?
The value was 0.762%.

What about the “Weight (% Change)” value ([5]; desorption, sample RH 10.06 %, 25.29) of the same compound?
Its value is 0.080%.

And the “Weight (% Change)” value ([5]; desorption, sample RH 29.99 %, 25.29)?
The value was 0.181%.

What about the “Weight (% Change)” value ([5]; desorption, sample RH 50.07 %, 25.3) of the same compound?
Its value is 0.364%.

What about the “Weight (% Change)” value ([5]; desorption, sample RH 70.11 %, 25.30) of the same compound?
The value was 0.526%.

And the “Weight (% Change)” value ([5]; sample RH […], 25.46, elapsed 46.6 min (after drying))?
Its value is 0%.

Which “effect against acute and chronic pain” value [3] does the source give for CCCCCc1cc(O)c2c(c1)OC(C)(C)[C@@H]1CCC(C)=C[C@@H]21 [THC] here?
Its value is “effective against acute and chronic pain”.

For CCCCC/C=C\C/C=C\C/C=C\C/C=C\CCCC(=O)NCCCl [arachidonyl-2-chloroethylamide], which effect on pain (CB1) is on record?
Its effect on pain is “reduces pain”.

With O=C(NC1(C(F)(F)F)CCC1)c1nn(-c2cnccn2)c2c1C[C@@H]1C[C@H]21 [Compound 926, (1aS,5aS)-2-Pyrazin-2-yl-1a,2,5,5a-tetrahydro-1H-2,3-diaza-cyclopropa[a]pentalene-4-carboxylic Acid (1-Trifluoromethyl-cyclobutyl)-amide] as the compound, how does the pEC50 (human CB2 receptor) read?
Its pEC50 is 8.39.

For CCCCC/C=C\C/C=C\C/C=C\C/C=C\CCCC(=O)NCCO [anandamide], which “effect against acute and chronic pain” value [3] is on record?
Its value is “effective against acute and chronic pain”.

For COc1ccc(C(=O)c2c(C)n(CCN3CCOCC3)c3cc(I)ccc23)cc1 [AM630], which “effect on the reversal of hypersensitivity by AM1241” value ([6]; treatment with CB2-selective antagonist) is on record?
The value was “inhibited”.

With CC(C)(C)[C@@H](CO)NC(=O)c1nn(-c2c[n+]([O-])ccn2)c2c1C[C@@H]1C[C@H]21 [Compound 699, (1aS,5aS)-2-(4-Oxy-pyrazin-2-yl)-1a,2,5,5a-tetrahydro-1H-2,3-diaza-cyclopropa[a]pentalene-4-carboxylic Acid ((S)-1-Hydroxymethyl-2,2-dimethyl-propyl)-amide] as the compound, how does the “paw withdrawal threshold (PWT)” value ([2]; 1 mpk Compound 699 orally) read?
Its value is 6.66 and 5.56 and 11.69 and 5.54 and 7.80 and 3.58.

And the paw withdrawal threshold (PWT), individual values ([2]; 10 mpk Compound 699 orally (positive control))?
Its paw withdrawal threshold (PWT), individual values is 6.58 g and 7.8 g.

And the “paw withdrawal threshold (PWT)” value ([2]; 10 mpk Compound 699 orally (positive control), in g)?
The value was 15.00 (3×) and 11.69.

What about the “analgesic efficacy, tactile allodynia (50% withdrawal threshold)” value [1] of the same compound?
The value was “robust and sustained analgesic efficacy over 6 hours”.

With CN1CCCCC1Cn1cc(C(=O)c2cc([N+](=O)[O-])ccc2I)c2ccccc21 (stereo not drawn) [AM1241] as the compound, how does the “effect on tactile and thermal hypersensitivity” value ([6]; local (subcutaneous) or systemic administration) read?
The value was “reverses tactile and thermal hypersensitivity”.

What about the “effect on induced hyperalgesia” value [7] of the same compound?
Its value is “suppresses hyperalgesia”.

Which “effect on hypersensitivity to mechanical stimuli” value ([6]; administered systemically) does the source give for COc1ccc2c(c1)c(CCN1CCOCC1)c(C)n2C(=O)c1cccc(Cl)c1Cl [GW405833] here?
Its value is “significantly reverses hypersensitivity to mechanical stimuli”.
